Paper PMC3089953 (Bioorganic & medicinal chemistry letters, 2009)
“Also recorded” adds a separate entry of the source. Blank lines part the entries; values can stand above or below the molecule they belong to.

Legend:
adenosine deaminase = assay: Conversion by purified adenosine deaminase; conditions: pH 7.4, 25 °C; for Conversion to AZG by adenosine deaminase: 0.2 units per mL enzyme, 120 min, 50 μM nucleoside
PBM cells [1] = assay: Cytotoxicity in PBM cells; type: cell-based; conditions: human
[2] = cited from earlier work
PBM cells [3] = assay: Intracellular metabolism in PBM cells; type: in vitro ADME, human; conditions: 50 μM for 4 h at 37 °C, LC/MS/MS
in vitro = type: cell-based; conditions: human, CEM cells (T-cell-derived cell line)
[4] = Cytotoxicity in Vero cells; type: cell-based, African green monkey; conditions: African green monkey, Vero cells (kidney epithelial cells)
CEM cells = assay: in vitro; type: cell-based; conditions: CEM cells
Vero cells = assay: Cytotoxicity in Vero cells; type: cell-based, African green monkey; conditions: Vero cells
HIV-1LAI = assay: Anti-HIV activity against HIV-1LAI in human PBM cells; type: cell-based
PBM, CEM, and Vero cells = assay: Cytotoxicity in PBM, CEM and Vero cells; type: cell-based

SMILES: Nc1ncnc2c1ncn2[C@H]1C[C@H](O)[C@@H](CO)O1 [2′-Deoxyadenosine, reference compound]
- Deaminated to 2′-deoxyinosine (adenosine deaminase; 7 min with 0.002 units of enzyme, 50 μM, positive control): 59%

SMILES: Cc1cn([C@H]2C[C@H](N=[N+]=[N-])[C@@H](CO)O2)c(=O)[nH]c1=O [AZT, 3′-Azido-3′-deoxythymidine]
- IC50 (PBM cells [1]): > 100 µM
- Bone marrow toxicity, share of the patients [2]: about 5%

SMILES: [N-]=[N+]=N[C@H]1C[C@H](n2cnc3c(Cl)nc(N)nc32)O[C@@H]1CO [Compound 10]
- Conversion to AZG-TP in PBM cells (PBM cells [3]): converted to AZG-TP
- Detection of the nucleoside analog in the triphosphate (TP) form (PBM cells [3]): unable to detect
- Conversion to AZG by adenosine deaminase (adenosine deaminase): substantially or completely converted to AZG

SMILES: [N-]=[N+]=N[C@H]1C[C@H](n2cnc3c(N)nc(N)nc32)O[C@@H]1CO [Compound 12]
- Conversion to AZG-TP in PBM cells (PBM cells [3]): converted to AZG-TP
- Conversion to AZG by adenosine deaminase (adenosine deaminase): substantially or completely converted to AZG; also recorded: substantially converted to AZG

SMILES: COc1nc(N)nc2c1ncn2[C@H]1C[C@H](N=[N+]=[N-])[C@@H](CO)O1 [Compound 17]
- Conversion to AZG-TP in PBM cells (PBM cells [3]): converted to AZG-TP
- Detection of the nucleoside analog in the triphosphate (TP) form (PBM cells [3]): unable to detect
- Conversion to AZG by adenosine deaminase (adenosine deaminase): substantially or completely converted to AZG

SMILES: CN(C)c1nc(N)nc2c1ncn2[C@H]1C[C@H](N=[N+]=[N-])[C@@H](CO)O1 [Compound 18]
- IC50 (in vitro): > 100 µM
- IC50 [4]: > 100 µM
- Conversion to AZG-TP in PBM cells (PBM cells [3]): converted to AZG-TP
- Detection of the nucleoside analog in the triphosphate (TP) form (PBM cells [3]): unable to detect
- Conversion to AZG by adenosine deaminase (adenosine deaminase): resistant to adenosine deaminase

SMILES: C=CCN(C)c1nc(N)nc2c1ncn2[C@H]1C[C@H](N=[N+]=[N-])[C@@H](CO)O1 [Compound 21]
- Toxicity in CEM cells (CEM cells): increased toxicity
- Toxicity in Vero cells (Vero cells): increased toxicity

SMILES: C#CCNc1nc(N)nc2c1ncn2[C@H]1C[C@H](N=[N+]=[N-])[C@@H](CO)O1 [Compound 22]
- Anti-HIV activity (HIV-1LAI): significantly less active
- Cytotoxicity (PBM, CEM, and Vero cells): no toxicity

SMILES: [N-]=[N+]=N[C@H]1C[C@H](n2cnc3c(N)nc(F)nc32)O[C@@H]1CO [Compound 35]
- Cytotoxicity (PBM, CEM, and Vero cells): increase in cytotoxicity

SMILES: [N-]=[N+]=N[C@H]1C[C@H](n2cnc3c(Cl)nc(F)nc32)O[C@@H]1CO [Compound 37]
- Cytotoxicity (PBM, CEM, and Vero cells): increase in cytotoxicity

Now from value to molecule, other results behind:

- IC50 (in vitro): > 100 µM
- Conversion to AZG-TP in PBM cells (PBM cells [3]): converted to AZG-TP
- Detection of the nucleoside analog in the triphosphate (TP) form (PBM cells [3]): unable to detect
SMILES: [N-]=[N+]=N[C@H]1C[C@H](n2cnc3c(NC4CC4)nc(N)nc32)O[C@@H]1CO [Compound 19]
- IC50 [4]: > 100 µM
- Conversion to AZG by adenosine deaminase (adenosine deaminase): substantially or completely converted to AZG

- Conversion to AZG-TP in PBM cells (PBM cells [3]): converted to AZG-TP
- Detection of the nucleoside analog in the triphosphate (TP) form (PBM cells [3]): unable to detect
SMILES: C=CCNc1nc(N)nc2c1ncn2[C@H]1C[C@H](N=[N+]=[N-])[C@@H](CO)O1 [Compound 20]
- Conversion to AZG by adenosine deaminase (adenosine deaminase): substantially or completely converted to AZG

- IC50 (in vitro): > 100 µM
SMILES: CC(C)(CO)Nc1nc(N)nc2c1ncn2[C@H]1C[C@H](N=[N+]=[N-])[C@@H](CO)O1 [Compound 24]
- IC50 [4]: > 100 µM

- IC50 (in vitro): > 100 µM
SMILES: [N-]=[N+]=N[C@H]1C[C@H](n2cnc3c(NCCO)nc(N)nc32)O[C@@H]1CO [Compound 26]
- IC50 [4]: > 100 µM

- IC50 (in vitro): > 100 µM
SMILES: COc1nc(Cl)nc2c1ncn2[C@H]1C[C@H](N=[N+]=[N-])[C@@H](CO)O1 [Compound 30]
- IC50 [4]: > 100 µM

- IC50 (in vitro): > 100 µM
SMILES: [N-]=[N+]=N[C@H]1C[C@H](n2cnc3c(N)nc(Cl)nc32)O[C@@H]1CO [Compound 31]
- IC50 [4]: > 100 µM

- IC50 (in vitro): > 100 µM
SMILES: [N-]=[N+]=N[C@H]1C[C@H](n2cnc3c(NC4CC4)nc(Cl)nc32)O[C@@H]1CO [Compound 33]
- IC50 [4]: > 100 µM

- IC50 (in vitro): > 100 µM
SMILES: CN(C)c1nc(Cl)nc2c1ncn2[C@H]1C[C@H](N=[N+]=[N-])[C@@H](CO)O1 [Compound 34]
- IC50 [4]: > 100 µM

- IC50 (in vitro): > 100 µM
SMILES: COc1nc(F)nc2c1ncn2[C@H]1C[C@H](N=[N+]=[N-])[C@@H](CO)O1 [Compound 36]
- IC50 [4]: > 100 µM

- IC50 (in vitro): > 100 µM
SMILES: COc1nc(N)c2ncn([C@H]3C[C@H](N=[N+]=[N-])[C@@H](CO)O3)c2n1 [Compound 38]
- IC50 [4]: > 100 µM

- IC50 (in vitro): > 100 µM
SMILES: COc1nc(OC)c2ncn([C@H]3C[C@H](N=[N+]=[N-])[C@@H](CO)O3)c2n1 [Compound 39]
- IC50 [4]: > 100 µM
- No cytotoxicity up to (PBM, CEM, and Vero cells): > 100 µM

- IC50 (in vitro): > 100 µM
SMILES: COc1nc(NC2CC2)c2ncn([C@H]3C[C@H](N=[N+]=[N-])[C@@H](CO)O3)c2n1 [Compound 40]
- IC50 [4]: > 100 µM
